The results in this text go back to patent EP4345091A1, “BENZOIC ACID DERIVATIVES, METHODS AND USES THEREOF” (priority 2022, dated 2024).

In brackets after ≈: the same amount, converted by molar mass. Like-named read-outs stand apart in the source and are kept apart here.

Data set [1] has as its system Mycobacterium tuberculosis H37Rv. The data set is described as follows: MIC and MBC by broth microdilution against M. tuberculosis H37Rv. Type of data set: cell-based, Mycobacterium tuberculosis H37Rv (ATCC 27294). The note with it: Mycobacterium tuberculosis, H37RV.
The nature of data set [2]: Cytotoxicity assay in THP-1 cells. In kind it is cell-based, human. The note with it: human, THP-1 cells, n/d (no toxicity at maximum tested dose), read-out: LC50 (the source's name). An excerpt: Cytotoxicity results were obtained through lethal concentration for 50% of the cell population, LC50. Table 6. Results obtained from cytotoxicity assays for the esters, represented by LD50 in µg/mL and comparison with MIC values, in µg/mL with toxicity/activity (T/A) index.
The T/A index quantitatively is the ratio between the lethal concentration (LC50) given by the minimum inhibitory concentration (MIC).

Data set [3] can be described thus: Chemical stability in phosphate buffer pH 7.4.
Description: Chemical hydrolysis was evaluated in phosphate buffer at physiological pH (7.4) to determine its influence in enzymatic studies.
1176 µL pH 7.4 phosphate buffer or pH 5.9 phosphate buffer, 18 µL ACN and 6 µL of a 10-1 M stock solution of the prodrug in ACN were mixed in a 2mL vial. The solution was incubated at 37 °C and 50 µL aliquots were removed, mixed with 450 µL of ACN: H2O 1:1. The solution was analysed by HPLC, the remaining substrate and the correspondent acid were both measured.
The eluant was a mixture of acetonitrile (60%/70%) and aqueous phosphate buffer with 5% of KH2PO4/H3PO4 0.025M (40%/30%). The flow rate was always 1 mL/1 min and wavelength was set at 230 nm. All quantifications were evaluated using calibration curves from stock solutions.
The initial substrate concentration was 5 x 10^-4 M in all stability assays. All incubations were carried out at pH 7.4 and 37 °C under agitation using the phosphate buffer described above as diluting agent. […] Acetonitrile (2%) was used in all studies to ensure adequate solubilization of the substrates.
A short description of data set [4]: Stability in human plasma (enzymatic hydrolysis).
For data set [5], the system named is Mycobacterium smegmatis homogenate. The data set is described as follows: Stability in Mycobacterium smegmatis homogenate (enzymatic hydrolysis). The note with it: Mycobacterium smegmatis homogenate, 37°C.
For data set [6], the system named is Mycobacterium Bovis BCG infecting human macrophages THP-1. In kind it is cell-based.
[7] abbreviates: M. tuberculosis H37Rv, Table 3, read-out: MBC.
The mark [8] stands for this setting: M. tuberculosis H37Rv, Tables 3, 6 and 7, read-out: MIC.

As to `CCCCCCCCCCCCOC(=O)c1cc([N+](=O)[O-])cc(C(F)(F)F)c1` [Compound 4e, Dodecyl 3-nitro-5-(trifluoromethyl)benzoate], the MBC in data set [1] (setting [7]) was above 1020 µg/mL. Moreover, the MIC in data set [1] (setting [8]) is above 1020 µg/mL. In data set [2] (THP-1 monocytic cells), the CC50 is above 512 µg/mL. In addition, in data set [3], the “Degradation (%) 24h” value was 1%, the “Degradation (%) 48h” value is 2%, the “Degradation (%) 72h” value is listed as 3% and the “Degradation (%) 168h” value stood at 6%. Besides, the “Degradation (%) 332h” value in data set [3] amounted to 11%. Moreover, in data set [4], the “Degradation (%) 24h” value came out at 1%, the “Degradation (%) 48h” value came out at 2% and the “Degradation (%) 72h” value is listed as 3%. Moreover, in data set [5], the “Degradation (%) 24h” value was found to be 3% and the “Degradation (%) 48h” value came to 6%.

In data set [1], `CCCCCCCCCCCCOC(=O)c1cc([N+](=O)[O-])cc([N+](=O)[O-])c1` [Compound 3e] yielded an MBC of 16 µg/mL (≈ 42.1 µM) and an MIC of 8 µg/mL (≈ 21 µM). The CC50 in data set [2] is above 512 µg/mL. Besides, in data set [3], the “Degradation (%) 24h” value is reported as 0%, the “Degradation (%) 48h” value came to 0%, the “Degradation (%) 72h” value was 1% and the “Degradation (%) 168h” value is listed as 1%. For the same molecule, in data set [3], the “Degradation (%) 332h” value came out at 2%. In data set [4], the “Degradation (%) 24h” value turned out to be 29%, the “Degradation (%) 48h” value was 50% and the “Degradation (%) 72h” value came to 65%. In data set [5], the “Degradation (%) 24h” value is 4% and the “Degradation (%) 48h” value worked out at 8%.

Regarding `CCCCNC(=O)c1ccccc1` [Compound 5a, N-butyl-benzamide], the minimum bactericidal concentration (MBC) in data set [1] (setting [7]) was found to be 256 µg/mL (≈ 1440 µM). For the same molecule, the MIC in data set [1] (setting [8]) is 256 µg/mL (≈ 1440 µM). Moreover, in data set [3], the “Degradation (%) 24h” value was found to be 0%, the “Degradation (%) 48h” value is given as 0%, the “Degradation (%) 72h” value amounted to 0% and the “Degradation (%) 168h” value stood at 0%. The “Degradation (%) 332h” value in data set [3] is reported as 0%. Besides, in data set [4], the “Degradation (%) 24h” value was found to be 0%, the “Degradation (%) 48h” value is listed as 0% and the “Degradation (%) 72h” value was 0%. Besides, in data set [5], the “Degradation (%) 24h” value came out at 2% and the “Degradation (%) 48h” value is 3%.

Regarding `CCCCCCNC(=O)c1ccccc1` [Compound 5b, N-hexyl-benzamide], the MBC in data set [1] (setting [7]) worked out at 64 µg/mL (≈ 312 µM). The MIC in data set [1] (setting [8]) worked out at 64 µg/mL (≈ 312 µM). Moreover, in data set [5], the “Degradation (%) 24h” value was determined as 1% and the “Degradation (%) 48h” value worked out at 2%.

In data set [1], `CCCCCCCCCCOC(=O)c1cc([N+](=O)[O-])cc([N+](=O)[O-])c1` [Compound 3d, Decyl 3,5-dinitrobenzoate] registered an MBC of 4 µg/mL (≈ 11.4 µM). Further, it took 4 µg/mL (≈ 11.4 µM) to inhibit growth in data set [1] (MIC). Besides, the “CFU x10^4” value came to 9.2 CFUs per mL in data set [6] (Time 0 days, compound concentration 2 µg/ml); 12.5 CFUs per mL in data set [6] (Time 1 day, compound concentration 2 µg/ml); 12.5 CFUs per mL in data set [6] (Time 3 days, compound concentration 2 µg/ml); 8.5 CFUs per mL in data set [6] (Time 7 days, compound concentration 2 µg/ml). Also, the CC50 in data set [2] (THP-1 monocytic cells) is above 512 µg/mL. Also, the “Degradation (%) 24h” value in data set [4] is recorded as 18%; in data set [5], 5%. The entries for the “Degradation (%) 48h” value in data set [4] and in data set [5] were 32% and 9%, respectively. For the same molecule, the “Degradation (%) 72h” value in data set [4] amounted to 44%.

Regarding `CCCCCCCCCCOC(=O)c1cc([N+](=O)[O-])cc(C(F)(F)F)c1` [Compound 4d, Decyl 3-nitro-5-(trifluoromethyl)benzoate], the MBC in data set [1] (setting [7]) stood at 256 µg/mL (≈ 682 µM). For the same molecule, the MIC in data set [1] (setting [8]) is 128 µg/mL (≈ 341 µM). The CC50 in data set [2] (THP-1 monocytic cells) is above 512 µg/mL. In data set [4], the “Degradation (%) 24h” value is 26%, the “Degradation (%) 48h” value is recorded as 45% and the “Degradation (%) 72h” value was found to be 60%. Moreover, in data set [5], the “Degradation (%) 24h” value stood at 5% and the “Degradation (%) 48h” value is on record as 10%.

With `CCCCCCCCOC(=O)c1cc([N+](=O)[O-])cc(C(F)(F)F)c1` [Compound 4c, Octyl 3-nitro-5-(trifluoromethyl)benzoate], in data set [3], the “Degradation (%) 24h” value worked out at 0%, the “Degradation (%) 48h” value is recorded as 1%, the “Degradation (%) 72h” value turned out to be 1% and the “Degradation (%) 168h” value was 3%. For the same molecule, the “Degradation (%) 332h” value in data set [3] was found to be 6%. In data set [4], the “Degradation (%) 24h” value was determined as 42%, the “Degradation (%) 48h” value amounted to 67% and the “Degradation (%) 72h” value amounted to 81%. Moreover, in data set [5], the “Degradation (%) 24h” value worked out at 8% and the “Degradation (%) 48h” value was determined as 16%.

Turning to `CCCCCCCCCCCCCCCCOC(=O)c1cc([N+](=O)[O-])cc([N+](=O)[O-])c1` [Compound 3g, Hexadecyl 3,5-dinitrobenzoate], in data set [1], the MBC is above 1020 µg/mL and the minimal inhibitory concentration (MIC) was above 1020 µg/mL. The CC50 in data set [2] (THP-1 monocytic cells) was above 512 µg/mL. In data set [4], the “Degradation (%) 24h” value is reported as 1%, the “Degradation (%) 48h” value was 3% and the “Degradation (%) 72h” value was determined as 4%. Further, in data set [5], the “Degradation (%) 24h” value worked out at 2% and the “Degradation (%) 48h” value was 4%.

Regarding `NNC(=O)c1ccncc1` [INH, isoniazid, reference compound], the MBC in data set [1] (setting [7]) came to 0.05 µg/mL (≈ 0.365 µM). Besides, the MIC in data set [1] (setting [8]) worked out at 0.025 µg/mL (≈ 0.182 µM). Also, the “CFU x10^4” value in data set [6] (Time 0 days, concentration 0.1 µg/ml) amounted to 9.2 CFUs per mL; in data set [6] (Time 1 day, concentration 0.1 µg/ml), 9.91 CFUs per mL; in data set [6] (Time 3 days, concentration 0.1 µg/ml), 1.33 CFUs per mL; in data set [6] (Time 7 days, concentration 0.1 µg/ml), 0.24 CFUs per mL.

In data set [1], `CCCCCCCCOC(=O)c1cc([N+](=O)[O-])cc([N+](=O)[O-])c1` [Compound 3c] came in with an MBC of 8 µg/mL (≈ 24.7 µM) and an MIC of 8 µg/mL (≈ 24.7 µM). In data set [3], the “Degradation (%) 24h” value turned out to be 0%, the “Degradation (%) 48h” value worked out at 0%, the “Degradation (%) 72h” value was found to be 1% and the “Degradation (%) 168h” value was found to be 2%. Also, the “Degradation (%) 332h” value in data set [3] was determined as 3%. Further, in data set [4], the “Degradation (%) 24h” value turned out to be 57%, the “Degradation (%) 48h” value is 81% and the “Degradation (%) 72h” value was 92%. Besides, in data set [5], the “Degradation (%) 24h” value is on record as 10% and the “Degradation (%) 48h” value is listed as 19%.

On to `CCCCCCCCCCCCNC(=O)c1ccc([N+](=O)[O-])cc1` [Compound 6e, N-dodecyl-4-nitrobenzamide], for which, in data set [1] (setting [7]), the MBC is 256 µg/mL (≈ 765 µM). Further, the MIC in data set [1] (setting [8]) came to 256 µg/mL (≈ 765 µM). Moreover, in data set [3], the “Degradation (%) 24h” value was 0%, the “Degradation (%) 48h” value came out at 0%, the “Degradation (%) 72h” value came out at 0% and the “Degradation (%) 168h” value is 0%. Also, the “Degradation (%) 332h” value in data set [3] stood at 0%. For the same molecule, in data set [4], the “Degradation (%) 24h” value came to 0%, the “Degradation (%) 48h” value turned out to be 0% and the “Degradation (%) 72h” value is given as 1%. Besides, in data set [5], the “Degradation (%) 24h” value was found to be 2% and the “Degradation (%) 48h” value is on record as 3%.

In the case of `CCCCCCCCCCCCNC(=O)c1ccccc1` [Compound 5e, N-dodecyl-benzamide], the MBC in data set [1] (setting [7]) was above 256 µg/mL. In data set [1] (setting [8]), the MIC was above 256 µg/mL. Also, in data set [3], the “Degradation (%) 24h” value came to 0%, the “Degradation (%) 48h” value came out at 0%, the “Degradation (%) 72h” value stood at 0% and the “Degradation (%) 168h” value was 0%. In data set [3], the “Degradation (%) 332h” value was 0%. Also, in data set [4], the “Degradation (%) 24h” value is given as 0%, the “Degradation (%) 48h” value is recorded as 0% and the “Degradation (%) 72h” value was 0%. Moreover, in data set [5], the “Degradation (%) 24h” value came to 0% and the “Degradation (%) 48h” value worked out at 0%.
